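Each compound was tested at five concentrations against cells in 96-well plates for 48 hours. TGI denotes the concentration required for complete inhibition of growth.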
Experiments:
Assay in all cases: inhibition of tumour cell growth, NCI panel, 48 h
[1] = tested on: RXF 393 renal
[2] = tested on: HT29 colon
[3] = tested on: HOP-62 NSCLC
[4] = tested on: CAKI-1 renal
[5] = tested on: M14 melanoma
[6] = tested on: LOX IMVI melanoma
[7] = tested on: OVCAR-4 ovarian
[8] = tested on: UACC-257 melanoma
[9] = tested on: SK-MEL-28 melanoma
[10] = tested on: A549 NSCLC
[11] = tested on: HS 578T breast
[12] = tested on: UO-31 renal
[13] = tested on: K-562 leukemia
[14] = tested on: DU-145 prostate
[15] = tested on: NCI-H226 lung
[16] = tested on: SK-MEL-2 melanoma
[17] = tested on: SK-OV-3 ovarian
[18] = tested on: RPMI-8226 leukemia
[19] = tested on: MALME-3M melanoma
[20] = tested on: A498 renal
[21] = tested on: OVCAR-5 ovarian
[22] = tested on: OVCAR-8 ovarian
[23] = tested on: NCI-H522 lung
[24] = tested on: SF-295 CNS
[25] = tested on: HCT-116 colon
[26] = tested on: MDA-N
[27] = tested on: SF-539 CNS
[28] = tested on: T-47D breast
[29] = tested on: PC-3 prostate
[30] = tested on: U251 CNS
[31] = tested on: HL-60(TB) leukemia
[32] = tested on: NCI-H23 lung
[33] = tested on: NCI-H460 lung
[34] = tested on: KM12 colon
[35] = tested on: IGROV1 ovarian
[36] = tested on: TK-10 renal
[37] = tested on: SF-268 CNS
[38] = tested on: SK-MEL-5 melanoma
[39] = tested on: MOLT-4 leukemia
[40] = tested on: 786-0 renal
[41] = tested on: EKVX NSCLC
[42] = tested on: BT-549 breast
[43] = tested on: MDA-MB-435
[44] = tested on: SNB-75 CNS
[45] = tested on: SN12C renal
[46] = tested on: ACHN renal
[47] = tested on: SNB-19 CNS
[48] = tested on: UACC-62 melanoma
[49] = tested on: COLO 205 colon
[50] = tested on: HCT-15 colon
[51] = tested on: HOP-92 NSCLC
[52] = tested on: MCF7 breast
[53] = tested on: CCRF-CEM leukemia
[54] = tested on: SW-620 colon
[55] = tested on: SR leukemia
[56] = tested on: NCI/ADR-RES ovarian
[57] = tested on: OVCAR-3 ovarian
[58] = tested on: MDA-MB-231 breast
[59] = tested on: HCC-2998 colon

CCC1([N+](=O)[O-])CC2C=CC1C2 (centres undefined)
TGI [1]: > 100 µM
TGI [2]: > 100 µM
TGI [3]: > 100 µM
TGI [4]: > 100 µM
TGI [5]: > 100 µM
TGI [6]: > 100 µM
TGI [7]: > 100 µM
TGI [8]: > 100 µM
TGI [9]: > 100 µM
TGI [10]: > 100 µM
TGI [11]: > 100 µM
TGI [12]: > 100 µM
TGI [13]: > 100 µM
TGI [14]: > 100 µM
TGI [15]: > 100 µM
TGI [16]: > 100 µM
TGI [17]: > 100 µM
TGI [18]: > 100 µM
TGI [19]: > 100 µM
TGI [20]: > 100 µM
TGI [21]: > 100 µM
TGI [22]: > 100 µM
TGI [23]: > 100 µM
TGI [24]: > 100 µM
TGI [25]: > 100 µM
TGI [26]: > 100 µM
TGI [27]: > 100 µM
TGI [28]: > 100 µM
TGI [29]: > 100 µM
TGI [30]: > 100 µM
TGI [31]: > 100 µM
TGI [32]: > 100 µM
TGI [33]: > 100 µM
TGI [34]: > 100 µM
TGI [35]: > 100 µM
TGI [36]: > 100 µM
TGI [37]: > 100 µM
TGI [38]: > 100 µM
TGI [39]: > 100 µM
TGI [40]: > 100 µM
TGI [41]: > 100 µM
TGI [42]: > 100 µM
TGI [43]: > 100 µM
TGI [44]: > 100 µM
TGI [45]: > 100 µM
TGI [46]: > 100 µM
TGI [47]: > 100 µM
TGI [48]: > 100 µM
TGI [49]: > 100 µM
TGI [50]: > 100 µM
TGI [51]: > 100 µM
TGI [52]: > 100 µM
TGI [53]: > 100 µM
TGI [54]: > 100 µM
TGI [55]: > 100 µM
TGI [56]: > 100 µM
TGI [57]: > 100 µM
TGI [58]: > 100 µM

O=C(O)CC1OCC=C2C[N+]3([O-])CCC45c6ccccc6NC4C1C2CC53 (centres undefined)
TGI [1]: > 100 µM
TGI [2]: > 100 µM
TGI [3]: > 100 µM
TGI [4]: > 100 µM
TGI [5]: > 100 µM
TGI [6]: > 100 µM
TGI [7]: > 100 µM
TGI [8]: > 100 µM
TGI [9]: > 100 µM
TGI [10]: > 100 µM
TGI [11]: > 100 µM
TGI [12]: > 100 µM
TGI [13]: > 100 µM
TGI [14]: > 100 µM
TGI [15]: > 100 µM
TGI [16]: 34.2 µM
TGI [17]: > 100 µM
TGI [18]: > 100 µM
TGI [19]: > 100 µM
TGI [20]: > 100 µM
TGI [21]: > 100 µM
TGI [22]: > 100 µM
TGI [23]: > 100 µM
TGI [24]: > 100 µM
TGI [25]: > 100 µM
TGI [26]: > 100 µM
TGI [27]: > 100 µM
TGI [28]: > 100 µM
TGI [29]: > 100 µM
TGI [30]: > 100 µM
TGI [31]: > 100 µM
TGI [32]: > 100 µM
TGI [33]: > 100 µM
TGI [34]: > 100 µM
TGI [35]: > 100 µM
TGI [36]: > 100 µM
TGI [37]: > 100 µM
TGI [38]: > 100 µM
TGI [39]: > 100 µM
TGI [40]: > 100 µM
TGI [41]: > 100 µM
TGI [42]: > 100 µM
TGI [43]: > 100 µM
TGI [45]: > 100 µM
TGI [46]: > 100 µM
TGI [47]: > 100 µM
TGI [48]: > 100 µM
TGI [49]: > 100 µM
TGI [50]: > 100 µM
TGI [51]: > 100 µM
TGI [52]: > 100 µM
TGI [54]: > 100 µM
TGI [55]: > 100 µM
TGI [56]: > 100 µM
TGI [57]: > 100 µM
TGI [58]: > 100 µM

O=c1oc2ccc(Cl)cc2cc1C1=CSC2=NCCN12
TGI [1]: 49.5 µM
TGI [2]: 36.3 µM
TGI [3]: 34.3 µM
TGI [4]: > 100 µM
TGI [5]: > 100 µM
TGI [6]: 35.1 µM
TGI [59]: 29.4 µM
TGI [7]: 65.4 µM
TGI [8]: > 100 µM
TGI [9]: 80.1 µM
TGI [10]: > 100 µM
TGI [11]: 93 µM
TGI [12]: 51.4 µM
TGI [13]: 36.8 µM
TGI [14]: 36.2 µM
TGI [16]: 55.8 µM
TGI [17]: > 100 µM
TGI [18]: 44.1 µM
TGI [19]: 79.7 µM
TGI [21]: > 100 µM
TGI [22]: 38.7 µM
TGI [23]: 34.5 µM
TGI [24]: 59.1 µM
TGI [25]: 32 µM
TGI [26]: 47.4 µM
TGI [27]: 72 µM
TGI [28]: 79.7 µM
TGI [29]: 49.2 µM
TGI [30]: 56.2 µM
TGI [31]: 61 µM
TGI [32]: 47.4 µM
TGI [33]: > 100 µM
TGI [34]: 41.3 µM
TGI [35]: 34 µM
TGI [36]: 84.4 µM
TGI [37]: 33.4 µM
TGI [38]: 34.2 µM
TGI [39]: 36.4 µM
TGI [40]: 33.4 µM
TGI [41]: 51.6 µM
TGI [42]: 37.9 µM
TGI [43]: 57.8 µM
TGI [44]: > 100 µM
TGI [45]: 32.7 µM
TGI [46]: > 100 µM
TGI [47]: 67.7 µM
TGI [48]: 40.4 µM
TGI [49]: 41.5 µM
TGI [50]: 41.6 µM
TGI [51]: 48.3 µM
TGI [52]: 40.1 µM
TGI [53]: 47 µM
TGI [54]: 49.1 µM
TGI [55]: 34.6 µM
TGI [56]: > 100 µM
TGI [57]: 35.5 µM
TGI [58]: 40.9 µM

COCOc1cc(OC)ccc1C/C=N/O
TGI [1]: > 100 µM
TGI [2]: > 100 µM
TGI [3]: > 100 µM
TGI [4]: > 100 µM
TGI [5]: > 100 µM
TGI [6]: > 100 µM
TGI [59]: > 100 µM
TGI [7]: > 100 µM
TGI [8]: > 100 µM
TGI [9]: > 100 µM
TGI [10]: > 100 µM
TGI [11]: > 100 µM
TGI [12]: > 100 µM
TGI [13]: > 100 µM
TGI [14]: > 100 µM
TGI [15]: > 100 µM
TGI [16]: > 100 µM
TGI [17]: > 100 µM
TGI [19]: > 100 µM
TGI [21]: > 100 µM
TGI [22]: > 100 µM
TGI [23]: > 100 µM
TGI [24]: > 100 µM
TGI [25]: > 100 µM
TGI [26]: > 100 µM
TGI [27]: > 100 µM
TGI [28]: > 100 µM
TGI [29]: > 100 µM
TGI [30]: > 100 µM
TGI [31]: > 100 µM
TGI [32]: > 100 µM
TGI [33]: > 100 µM
TGI [34]: > 100 µM
TGI [35]: > 100 µM
TGI [36]: > 100 µM
TGI [37]: > 100 µM
TGI [38]: > 100 µM
TGI [39]: > 100 µM
TGI [40]: > 100 µM
TGI [41]: > 100 µM
TGI [42]: > 100 µM
TGI [43]: > 100 µM
TGI [45]: > 100 µM
TGI [46]: > 100 µM
TGI [47]: > 100 µM
TGI [48]: > 100 µM
TGI [49]: > 100 µM
TGI [50]: > 100 µM
TGI [51]: > 100 µM
TGI [52]: > 100 µM
TGI [53]: > 100 µM
TGI [54]: > 100 µM
TGI [55]: > 100 µM
TGI [56]: > 100 µM
TGI [57]: > 100 µM
TGI [58]: > 100 µM

CCCCn1c(C)c(C(=O)CC)c(C(=O)NCCN2CCN(c3ccccc3Cl)CC2)c1C
TGI [1]: 39.4 µM
TGI [2]: 29.2 µM
TGI [3]: 40.6 µM
TGI [4]: 32.3 µM
TGI [5]: 33.5 µM
TGI [6]: 35.6 µM
TGI [7]: 34.6 µM
TGI [8]: 26.3 µM
TGI [9]: 48.2 µM
TGI [10]: 32.9 µM
TGI [11]: 58.1 µM
TGI [12]: 27.1 µM
TGI [13]: > 100 µM
TGI [14]: 35.4 µM
TGI [15]: 37.8 µM
TGI [16]: 32.1 µM
TGI [17]: 35.7 µM
TGI [18]: 81.8 µM
TGI [19]: 34.4 µM
TGI [20]: 32.3 µM
TGI [21]: 33.3 µM
TGI [22]: 35.8 µM
TGI [23]: 33.3 µM
TGI [24]: 34.6 µM
TGI [25]: 27.7 µM
TGI [26]: 31 µM
TGI [27]: 34.9 µM
TGI [28]: 51.2 µM
TGI [29]: 31.1 µM
TGI [30]: 31.3 µM
TGI [31]: 49.5 µM
TGI [32]: 30.5 µM
TGI [33]: 28.9 µM
TGI [34]: 37.5 µM
TGI [35]: 30.9 µM
TGI [36]: 33.9 µM
TGI [37]: 37.7 µM
TGI [38]: 28.7 µM
TGI [39]: 50.1 µM
TGI [40]: 32.5 µM
TGI [41]: 33.1 µM
TGI [42]: 30.3 µM
TGI [43]: 36.4 µM
TGI [45]: 30.9 µM
TGI [46]: 30.2 µM
TGI [47]: 31.3 µM
TGI [48]: 29.9 µM
TGI [49]: 28.4 µM
TGI [50]: 31.6 µM
TGI [51]: 27.7 µM
TGI [52]: 36.2 µM
TGI [53]: > 100 µM
TGI [54]: > 100 µM
TGI [55]: 60.1 µM
TGI [56]: 34.3 µM
TGI [57]: 48.1 µM
TGI [58]: 33.8 µM
